Assay: DPPH radical scavenging activity
Format: ADME

| SC50 | SMILES |
| --- | --- |
| 11.72 µg/mL | OC[C@@H](O)[C@@H]1O[C@H]2O[C@@H]3[C@@H](O)[C@H](O[C@@H]4[C@@H](O)[C@H](O[C@@H]5[C@@H](O)[C@H](O[C@@H]6[C@@H](O)[C@H](O[C@@H]7[C@@H](O)[C@H](O[C@@H]8[C@@H](O)[C@H](O[C@@H]9[C@@H](O)[C@H](O[C@@H]1[C@H]2O)O[C@H]9[C@H](O)CO)O[C@H]8[C@H](O)CO)O[C@H]7[C@H](O)CO)O[C@H]6[C@H](O)CO[C@@H]1O[C@H](CO)[C@@H](O[C@@H]2O[C@H](CO)[C@@H](O)[C@@H]2O)[C@H](O)[C@H]1O)O[C@H]5[C@H](O)CO)O[C@H]4[C@H](O)CO)O[C@H]3[C@H](O)CO |
| 5.24 µg/mL | O=C1O[C@H]([C@@H](O)CO)C(O)=C1O [ASCORBIC ACID] |

— ChEMBL document CHEMBL1144740, “Structural characterization and DPPH radical scavenging activity of an arabinoglucogalactan from Panax notoginseng root” (J Nat Prod, 2008)
